Experimental data published in patent publication US8617567B2, “Fungus polyose composition with immunity enhancing effect and application thereof” (priority 2009, dated 2013).

Test system: S180 cancer bearing mice
Conditions: S180 NIH mice, 100 mg/kg intraperitoneal, 2 times per week, 11 days
Procedure: 85 healthy NIH mice, unisexual, were selected. […] The other 55 mice were used for solid tumor test.
At the beginning of the experiment, 20 mice with ascites were selected and sacrificed by pulling the cervical vertebrae on a sterilized bench, then the abdomens were sterilized with iodine tinctur, 75% alcohol q-tips in turn. The ascites were collected with 3 ml asepsis disposable syringe and put in asepsis dry conical flask and stored on the ice. […] It should be noted that the ascites collected were a milk-yellow or milk-white fluid, and the ascites with a larger quantity of RBC should be discarded. After the ascites were diluted 100 times, the cell density was measured to about 2×10^7/ml by the method of Trypan Blue count. The ascites were diluted with saline. The diluted ascites were subcutaneously injected, at a dosage of 0.2 ml, into the right armpit of each mouse.
After all qualified 55 mice were injected, they were randomly divided into 5 groups: the blank control group, the compound fungus polyose low-, medium-, and high-dosage groups, and the positive cyclophosphamide control group, respectively. 11 mice were in each group. […] After 11 days of administration, all mice were sacrificed and their body weights, tumor weights, thymic weights, and spleen weights were measured. After the end of the experiment, statistical treatment of data was carried out to compare the difference among the groups. Thymus (spleen) index=Thymus (spleen) weight/Body weight×10 g Body Weight Changes=Body weight after administration−Body weight before administration Inhibition ratio %=(Tumor weight in blank group−Tumor weight in treatment group)/Tumor weight in blank group×100% 4.2 Mice Immune Function Test 4.2.1 Mice Carbon Clearance Test

Compound: O=P1(N(CCCl)CCCl)NCCCO1 (centres unmarked) [Cyclophosphamide]
- Condition of thymus and spleen: obvious atrophy
- Spleen index: 0.0322 ± 0.0190 g/10 g
- Thymus index: 0.0117 ± 0.0041 g/10 g
- Tumor weight: 0.0502 ± 0.0253 g
- Anti-tumor ratio (vs blank control): 95.9%
